Measurements from ChEMBL document CHEMBL3885861, “Open TG-GATES”.

Species: Rattus norvegicus
Test: Open TG-GATES - Regimen: Daily Repeat
Type: toxicity, organism-based, Sprague-Dawley
Set-up: regimen Daily Repeat, gender Male, age 6 weeks
Settings: in vivo, po, route gavage; for gamma-GTP / A/G / ALP / ALT / AST / BUN / CRE / Ca / Cl / DBIL / GLC / IP / K / LDH / Na / PL / RALB / TBIL / TC / TG / TP: tissue Plasma; for APTT / Bas / Eos / Fbg / Hb / Ht / Lym / MCH / MCHC / MCV / Mono / Neu / PT / Plat / RBC / Ret / WBC: tissue Blood; for KIDNEY_L / KIDNEY_R / KIDNEY_TOTAL: tissue Kidney; for LIVER: tissue Liver
[1] = 3 mg/kg, […], dose level Low, time 28 day
[2] = 10 mg/kg, 72 h, dose level Middle, time 3 day
[3] = 10 mg/kg, […], dose level Middle, time 7 day
[4] = 10 mg/kg, […], dose level Middle, time 14 day
[5] = 10 mg/kg, […], dose level Middle, time 28 day

CCN(CC)N=O [N-NITROSODIETHYLAMINE] gave a gamma-GTP (3 mg/kg, […], dose level Low, time 14 day) of 1.2 IU/L, an A/G [1] of 1.3 and an ALP [1] of 685.6 IU/L. For the same molecule, the ALT [1] was 37.6 IU/L, the AST [1] was 69.4 IU/L and the BUN [1] was 15.6 mg/dL. The CRE [1] was 0.5 mg/dL, the Ca [1] was 10.2 mg/dL and the Cl [1] was 103.2 meq/L. For the same molecule, the DBIL [1] was 0.1 mg/dL, the GLC [1] was 203.8 mg/dL and the IP [1] was 7 mg/dL. For the same molecule, the K [1] was 3.7 meq/L, the LDH [1] was 198.4 IU/L and the Na [1] was 141.6 meq/L. The PL [1] was 142.2 mg/dL, the RALB [1] was 3.4 g/dL and the TBIL [1] was 0.2 mg/dL. For the same molecule, the TC [1] was 72 mg/dL, the TG [1] was 109.8 mg/dL and the TP [1] was 6 g/dL. The gamma-GTP [1] was 1.6 IU/L, the TERMINAL_BW [2] was 232.4 g and the APTT [2] was 17.9 s. The Bas [2] was 0.4%, the Eos [2] was 1% and the Fbg [2] was 224.4 mg/dL. The Hb [2] was 13.7 g/dL, the Ht [2] was 39.6% and the Lym [2] was 80.6%. It also gave an MCH [2] of 21.4 pg, an MCHC [2] of 34.5% and an MCV [2] of 62 fL. For the same molecule, the Mono [2] was 1.8%, the Neu [2] was 15.6% and the PT [2] was 11.9 s. The Plat [2] was 144.5 x10_4/uL, the RBC [2] was 639 x10_4/ul and the Ret [2] was 5.5%. It also gave a WBC [2] of 81.6 x10_2/uL, a KIDNEY_L [2] of 1 g and a KIDNEY_R [2] of 1 g. For the same molecule, the KIDNEY_TOTAL [2] was 2 g, the LIVER [2] was 9.9 g and the A/G [2] was 1.5. It also gave an ALP [2] of 927.8 IU/L, an ALT [2] of 33.6 IU/L and an AST [2] of 69 IU/L. The BUN [2] was 14.4 mg/dL, the CRE [2] was 0.4 mg/dL and the Ca [2] was 10.6 mg/dL. The Cl [2] was 103.4 meq/L, the DBIL [2] was 0.09 mg/dL and the GLC [2] was 186.6 mg/dL. The IP [2] was 7.5 mg/dL, the K [2] was 4.1 meq/L and the LDH [2] was 186.8 IU/L. For the same molecule, the Na [2] was 140.8 meq/L, the PL [2] was 126.4 mg/dL and the RALB [2] was 3.3 g/dL. For the same molecule, the TBIL [2] was 0.1 mg/dL, the TC [2] was 69 mg/dL and the TG [2] was 75 mg/dL. It also gave a TP [2] of 5.5 g/dL, a gamma-GTP [2] of 1.4 IU/L and a TERMINAL_BW [3] of 255.8 g. For the same molecule, the TERMINAL_BW [4] was 288.9 g, the TERMINAL_BW [5] was 349 g and the APTT [3] was 19.3 s. The Bas [3] was 0.8%, the Eos [3] was 1% and the Fbg [3] was 210.6 mg/dL. It also gave a Hb [3] of 14.7 g/dL, a Ht [3] of 41.7% and a Lym [3] of 80%. The MCH [3] was 21.2 pg, the MCHC [3] was 35.2% and the MCV [3] was 60.3 fL. The Mono [3] was 2.4%, the Neu [3] was 15.8% and the PT [3] was 12.3 s. For the same molecule, the Plat [3] was 139.2 x10_4/uL, the RBC [3] was 693.4 x10_4/ul and the Ret [3] was 3.4%. It also gave a WBC [3] of 94.2 x10_2/uL, an APTT [4] of 18.7 s and a Bas [4] of 1%. For the same molecule, the Eos [4] was 1.2%, the Fbg [4] was 212 mg/dL and the Hb [4] was 16 g/dL. For the same molecule, the Ht [4] was 44.8%, the Lym [4] was 75.2% and the MCH [4] was 21.4 pg. For the same molecule, the MCHC [4] was 35.6%, the MCV [4] was 60.2 fL and the Mono [4] was 2.6%. It also gave a Neu [4] of 20%, a PT [4] of 12.8 s and a Plat [4] of 135.1 x10_4/uL. It also gave an RBC [4] of 745.2 x10_4/ul, a Ret [4] of 3% and a WBC [4] of 125 x10_2/uL. The APTT [5] was 17.1 s, the Bas [5] was 0.6% and the Eos [5] was 0.8%. The Fbg [5] was 197.8 mg/dL, the Hb [5] was 16.8 g/dL and the Ht [5] was 45.5%. For the same molecule, the Lym [5] was 77.4%, the MCH [5] was 20.6 pg and the MCHC [5] was 36.9%. For the same molecule, the MCV [5] was 55.9 fL, the Mono [5] was 2.4% and the Neu [5] was 18%. For the same molecule, the PT [5] was 12.7 s, the Plat [5] was 115.5 x10_4/uL and the RBC [5] was 815 x10_4/ul. For the same molecule, the Ret [5] was 1.9%, the WBC [5] was 126.6 x10_2/uL and the KIDNEY_L [3] was 1 g. For the same molecule, the KIDNEY_R [3] was 1 g, the KIDNEY_TOTAL [3] was 2.1 g and the KIDNEY_L [4] was 1.1 g. For the same molecule, the KIDNEY_R [4] was 1.1 g, the KIDNEY_TOTAL [4] was 2.3 g and the KIDNEY_L [5] was 1.2 g. For the same molecule, the KIDNEY_R [5] was 1.2 g, the KIDNEY_TOTAL [5] was 2.3 g and the LIVER [3] was 10.2 g. It also gave an LIVER [4] of 9.6 g, an LIVER [5] of 9.3 g and an A/G [3] of 1.7. The ALP [3] was 860.8 IU/L, the ALT [3] was 36.2 IU/L and the AST [3] was 78 IU/L. The BUN [3] was 13.6 mg/dL, the CRE [3] was 0.4 mg/dL and the Ca [3] was 10.4 mg/dL. The Cl [3] was 104.2 meq/L, the DBIL [3] was 0.1 mg/dL and the GLC [3] was 190.2 mg/dL. For the same molecule, the IP [3] was 7.4 mg/dL, the K [3] was 4 meq/L and the LDH [3] was 236.4 IU/L. The Na [3] was 141.2 meq/L, the PL [3] was 131 mg/dL and the RALB [3] was 3.3 g/dL. The TBIL [3] was 0.2 mg/dL, the TC [3] was 71.4 mg/dL and the TG [3] was 59.2 mg/dL. The TP [3] was 5.3 g/dL, the gamma-GTP [3] was 1.2 IU/L and the A/G [4] was 1.6. The ALP [4] was 1173 IU/L, the ALT [4] was 52.8 IU/L and the AST [4] was 91.4 IU/L. The BUN [4] was 15 mg/dL, the CRE [4] was 0.5 mg/dL and the Ca [4] was 10.5 mg/dL. It also gave a Cl [4] of 101.6 meq/L and a DBIL [4] of 0.1 mg/dL.
